Reference: PMC12494831, “Discovery of new pyridine 3-carboxylic acid-based pharmacophores as dual anti-inflammatory and anti-hyperglycemic agents” (Scientific Reports, 2025)

Assays:
α-amylase (EC.3.2.1.1) = molecular target: T1, α-amylase (EC.3.2.1.1) (Homo sapiens, UniProt P04746); assay: In vitro α-amylase inhibition (starch/DNS, 540 nm); type: biochemical; conditions: for IC50: test concentrations 2-10 µg, read-out: α-Amylase IC50±SD (converted)
T1 sequence (P04746 16-511): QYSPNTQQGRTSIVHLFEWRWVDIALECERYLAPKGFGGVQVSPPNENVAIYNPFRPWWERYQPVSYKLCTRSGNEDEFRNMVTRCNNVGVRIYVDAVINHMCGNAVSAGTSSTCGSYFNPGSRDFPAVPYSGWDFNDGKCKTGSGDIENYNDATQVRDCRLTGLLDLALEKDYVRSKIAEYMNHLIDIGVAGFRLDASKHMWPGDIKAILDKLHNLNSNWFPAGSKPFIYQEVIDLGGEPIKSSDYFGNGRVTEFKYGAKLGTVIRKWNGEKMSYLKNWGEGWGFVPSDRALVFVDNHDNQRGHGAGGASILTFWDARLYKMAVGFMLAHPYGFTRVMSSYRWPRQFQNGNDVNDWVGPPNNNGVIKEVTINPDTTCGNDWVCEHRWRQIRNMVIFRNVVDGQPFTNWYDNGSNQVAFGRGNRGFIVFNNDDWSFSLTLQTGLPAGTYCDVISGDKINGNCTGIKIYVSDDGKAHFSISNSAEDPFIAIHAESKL
Method: α-Amylase enzyme and other chemical reagents are used for enzyme inhibitory activity. The characterized compounds are diluted in an analytical grad solvent (DMSO) system at 1 mg/mL solution concentration. The activity reaction of the synthesized analogues on the enzyme was treated at final concentrations of 2 to 10 µg. In the interaction between enzyme and compounds, 10 min incubation was maintained before the inhibitory activity started. The enzyme-receptor inhibition efficiency was calculated and compared with the positive control.
Sodium phosphate buffer 0.2 mM (pH 6.9 with 6 × 10^− 4 M NaCl) in 500 µL enzyme solution (0.5 mg/mL) was taken and incubated with test samples (2–10 µg/mL) at room temperature for 10 min. A starch (1%) solution of 500 µL with phosphate buffer was added to all test inhibitor samples; further, the tubes were incubated for 10 min at 28 °C. The reaction test tubes were incubated for another 5 min in the water bath (100 °C) after the addition of the color reagent dinitro salicylic acid and cooled at room temperature until reached. Finally, 10 mL of distilled water was mixed with each test tube, and the colored mixture was measured at a fixed wavelength of 540 nm. The absorbance without sample solution (blank) and control (buffer and standard drug sample) was measured at 540 nm. The α-amylase inhibition efficiency was validated using the following equation:2 [drawing 2]

[1] = DPPH radical scavenging (517 nm); conditions: for IC50: read-out: DPPH IC50±SD
Method: (§1) The experimental method principle relies on the degradation of the purple color of the DPPH radical and the blue color reduction of the ABTS cation radical. This is due to consuming the electron or hydrogen radical from the antioxidant (A-H). Both assays were measured at 517 nm and 734 nm, respectively. The distinction of color changes illustrates the potential scavenging activity of the inhibitor molecules in terms of hydrogen-donating proficiency. From this, we can conclude the anti-oxidant efficacy.
Methanolic DPPH solution (0.15 mM) was prepared, and 1.0 mL of DPPH solution was mixed with 3.0 mL of synthesized molecules at different concentrations (20 µM to 100 µM). The mixture was constantly swirled and stored RT for 30 min, followed by absorbance measurement at 517 nm.

[2] = ABTS cation radical scavenging (734 nm); conditions: for IC50: read-out: ABTS IC50±SD
Method: as §1
In brief, 7.0 mM ABTS in H2O and 2.5 mM potassium persulfate (1:1) were shaken well to generate ABTS cation radicals and kept in the dark at RT for 15–20 h before it is used for the experiment. After, the radical was mixed with the synthesized molecules at different concentrations (20 µM to 100 µM). The resultant solution was measured for absorbance at 734 nm. Ascorbic acid is the positive control for this experiment.1 [drawing 1]

human RBC = assay: Anti-inflammatory activity: hypotonic solution-induced human RBC hemolysis (560 nm); type: cell-based; conditions: for IC50: induced human RBC hemolysis, read-out: Inflammatory IC50±SD
Method: All synthesized compounds are validated in human RBC (blood sample); the blood sample was collected from a healthy volunteer in an EDTA tube. The EDTA tube further proceeded with centrifugation at 3000 rpm for 30 min. A supernatant (which contains plasma and leucocytes) solution was isolated, and the obtained RBC (red blood cells) was further treated with Alsever’s reagent. Alsever’s reagent was prepared as follows: sodium citrate (0.8 g, 2.6 mmol), dextrose (2 g, 11.0 mmol), citric acid (0.050 g, […]), and sodium chloride (0.42 g, 7.0 mmol) were solubilized in 100 mL of distilled water. The above mixture was centrifuged for 30 min at 3000 rpm. Then, colloidal blood cells were separated, carefully transferred, and washed with 0.85% of the isosaline solution; this process continued until a clear solution appeared. Employing coagulated RBC and generated human erythrocyte hemolysis, the anti-inflammatory activity and potential of the synthesized entities were evaluated. The tested compounds are prepared at different concentrations for the inhibition activity of inflammation, along with 100 µL of a purified RBC sample utilized. All characterized samples were followed by adding 5.0 mL of trisodium phosphate (10 mM) and 5.0 mL of sodium chloride (5.0 mM) buffer solutions. After the addition of the above mixtures, the test samples are incubated for 15 min at room temperature with RBC and hypotonic mixtures. After incubation, the mixture was centrifuged at 3000 rpm for 15 min. The final supernatant liquid solution was measured at 560 nm using a UV-visible spectrophotometer.3 [drawing 3]

MTT cell viability assay = type: cell-based; conditions: mouse, RAW 264.7 macrophage cells, control 100
Method: (§2) The toxicity of the molecule was investigated by the MTT cell viability assay employing RAW macrophage cells. For this study, two lead compounds, 2b and 2e, were screened based on the in vitro results. […] (The OD values in Tables S6 and S7)
(§3) The MTT ((3-(4,5-Dimethylthiazol-2-yl)-2,5-Diphenyltetrazolium Bromide)) assay was employed to determine viability for the synthesized potent compounds 2b and 2e; the cell viability results portray the compounds’ cytotoxicity. The assay was conducted on RAW macrophage cells (RAW 264.7) with various dilutions of 2b and 2e (10, 20, 30, 40, and 50 µM). The results were confirmed with a control.

[3] = tested on: RAW macrophage cells (RAW 264.7); assay: MTT cell viability assay; type: cell-based; conditions: RAW macrophage cells
Method: as §2, §3

α-Amylase Inhibition % (α-amylase (EC.3.2.1.1); 2 µg) | α-Amylase Inhibition % (α-amylase (EC.3.2.1.1); 4 µg) | α-Amylase Inhibition % (α-amylase (EC.3.2.1.1); 6 µg) | α-Amylase Inhibition % (α-amylase (EC.3.2.1.1); 8 µg) | α-Amylase Inhibition % (α-amylase (EC.3.2.1.1); 10 µg) | IC50 (α-amylase (EC.3.2.1.1)) | IC50 [1] | IC50 [2] | Structure (SMILES) | DPPH Inhibition % ([1]; 20 µM) | DPPH Inhibition % ([1]; 40 µM) | DPPH Inhibition % ([1]; 60 µM) | DPPH Inhibition % ([1]; 80 µM) | DPPH Inhibition % ([1]; 100 µM) | ABTS Inhibition % ([2]; 20 µM) | ABTS Inhibition % ([2]; 40 µM) | ABTS Inhibition % ([2]; 60 µM) | ABTS Inhibition % ([2]; 80 µM) | ABTS Inhibition % ([2]; 100 µM) | inhibition at 20 µM (human RBC) | inhibition at 40 µM (human RBC) | further results
86.09% | 77.3% | 74.08% | 72.76% | 56.22% | 5.17 µM | 52.09 ± 0.15 µM | 45.63 ± 0.19 µM | O=C(NCc1ccc2c(c1)OCO2)c1cccnc1 [Compound 2e, N-(Benzo[1,3]dioxol-5-ylmethyl)nicotinamide] | 29.2% | 47.1% | 49.2% | 55.8% | 59% | 23.4% | 27.9% | 29.3% | 35.4% | 43% | 33.6% | 42.8% | inhibition at 60 µM (human RBC): 43%; inhibition at 80 µM (human RBC): 48.2%; inhibition at 100 µM (human RBC): 60%; IC50 (human RBC): 14.1 ± 0.15 µM; viability at 10 µM (MTT cell viability assay; 10 µM): 89.1%; viability at 20 µM (MTT cell viability assay; 20 µM): 81.7%; viability at 30 µM (MTT cell viability assay; 30 µM): 74.8%; viability at 40 µM (MTT cell viability assay; 40 µM): 65.1%; viability at 50 µM (MTT cell viability assay; 50 µM): 56.4%; Toxicity, outcome of the MTT cell viability assay (in words) [3]: viable for the cell line
74.81% | 74.52% | 69.98% | 69.69% | 55.63% | 5.06 µM | 79.62 ± 0.14 µM | 88.03 ± 0.17 µM | CCOc1ccc2nc(NC(=O)c3cccnc3)sc2c1 [Compound 2k, N-(6-ethoxybenzothiazol-2-yl) nicotinamide] | 8.89% | 33.34% | 40.65% | 49.83% | 52.31% | 37.6% | 41.8% | 46.3% | 47.9% | 55.8% | 48.6% | 55% | inhibition at 60 µM (human RBC): 66.8%; inhibition at 80 µM (human RBC): 74.5%; inhibition at 100 µM (human RBC): 87.5%; IC50 (human RBC): 25.86 ± 0.23 µM
